# Results reported in patent publication US12473304B2, “Heterocyclic PAD4 inhibitors” (BRISTOL-MYERS SQUIBB COMPANY, priority 2020, dated 2025).
# Biological target: human PAD4 (hPAD4) (Homo sapiens (Human), UniProt Q9UM07)
# Assay: RFMS Human PAD4 Functional Assay 1
# Format: biochemical
# Conditions: RFMS assay 1; 5 nM hPAD4, 250 μM BAEE substrate, 50 μM calcium, 37° C.
# How it was run: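 Citrullination product read by RapidFire triple-quad MRM against a modified-citrulline internal standard, after TCA stop and 30 min phenyl glyoxal step at 37 °C. Reaction: 250 μM BAEE, 5 nM human PAD4, 90 min at 37 °C, pH 7.5 HEPES buffer with 50 μM calcium and 5 μM TPEN, following 30 min compound–enzyme preincubation (max 50 μM).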
# human PAD4 (hPAD4), sequence (Q9UM07 whole entry): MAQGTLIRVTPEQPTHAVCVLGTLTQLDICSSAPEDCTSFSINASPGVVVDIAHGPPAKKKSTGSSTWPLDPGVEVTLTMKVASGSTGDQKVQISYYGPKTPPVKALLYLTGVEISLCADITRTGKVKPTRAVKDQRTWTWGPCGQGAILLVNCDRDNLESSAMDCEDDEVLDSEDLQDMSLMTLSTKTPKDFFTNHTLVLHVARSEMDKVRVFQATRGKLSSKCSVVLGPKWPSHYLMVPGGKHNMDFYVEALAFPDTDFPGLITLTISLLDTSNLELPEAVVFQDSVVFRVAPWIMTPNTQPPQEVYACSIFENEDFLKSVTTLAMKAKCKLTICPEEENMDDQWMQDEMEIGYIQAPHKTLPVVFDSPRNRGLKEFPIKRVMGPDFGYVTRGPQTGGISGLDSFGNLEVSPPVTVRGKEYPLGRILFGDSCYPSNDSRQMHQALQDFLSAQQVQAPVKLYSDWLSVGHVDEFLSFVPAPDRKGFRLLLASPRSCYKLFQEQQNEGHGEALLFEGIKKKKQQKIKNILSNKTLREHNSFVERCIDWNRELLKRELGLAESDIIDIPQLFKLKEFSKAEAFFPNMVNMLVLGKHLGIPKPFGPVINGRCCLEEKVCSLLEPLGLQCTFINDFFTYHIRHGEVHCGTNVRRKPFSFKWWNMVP
row,IC50 [nM],Structure (SMILES)
1,20,"Cc1c(-c2cc3ccc(-c4ccc(NS(C)(=O)=O)cc4)cc3n2CC2CC2)nn2cc(C(=O)N3C[C@H](N)C[C@@H](F)C3)ccc12 [Example 369, N-[4-(2-{6-[(3R,5R)-3-Amino-5-fluoropiperidine-1-carbonyl]-3-methylpyrazolo[1,5-a]pyridin-2-yl}-1-(cyclopropylmethyl)-1H-indol-6-yl)phenyl]methanesulfonamide]"
2,130,"Cc1c(-c2cc3ccc(-c4ccc(CNS(C)(=O)=O)cc4)cc3n2CC2CC2)nn2cc(C(=O)N3C[C@H](N)C[C@@H](F)C3)ccc12 [Example 370, N-{[4-(2-{6-[(3R,5R)-3-Amino-5-fluoropiperidine-1-carbonyl]-3-methylpyrazolo[1,5-a]pyridin-2-yl}-1-(cyclopropylmethyl)-1H-indol-6-yl)phenyl]methyl}methanesulfonamide]"
3,1070,"Cc1c(-c2cc3ccc(-c4cccc(CO)c4)cc3n2CC2CC2)nn2cc(C(=O)N3C[C@H](N)C[C@@H](F)C3)ccc12 [Example 371, [3-(2-{6-[(3R,5R)-3-Amino-5-fluoropiperidine-1-carbonyl]-3-methylpyrazolo[1,5-a]pyridin-2-yl}-1-(cyclopropylmethyl)-1H-indol-6-yl)phenyl]methanol]"
4,190,"Cc1c(-c2cc3ccc(-c4ccccc4C(N)=O)cc3n2CC2CC2)nn2cc(C(=O)N3C[C@H](N)C[C@@H](F)C3)ccc12 [Example 372, 2-(2-{6-[(3R,5R)-3-Amino-5-fluoropiperidine-1-carbonyl]-3-methylpyrazolo[1,5-a]pyridin-2-yl}-1-(cyclopropylmethyl)-1H-indol-6-yl)benzamide]"
5,200,"Cc1c(-c2cc3ccc(-c4ccc(C(N)=O)cc4)cc3n2CC2CC2)nn2cc(C(=O)N3C[C@H](N)C[C@@H](F)C3)ccc12 [Example 373, 4-(2-{6-[(3R,5R)-3-Amino-5-fluoropiperidine-1-carbonyl]-3-methylpyrazolo[1,5-a]pyridin-2-yl}-1-(cyclopropylmethyl)-1H-indol-6-yl)benzamide]"
6,1360,"Cc1c(-c2cc3ccc(-c4cc(Cl)c(CO)cc4F)cc3n2CC2CC2)nn2cc(C(=O)N3C[C@H](N)C[C@@H](F)C3)ccc12 [Example 375, [4-(2-{6-[(3R,5R)-3-Amino-5-fluoropiperidine-1-carbonyl]-3-methylpyrazolo[1,5-a]pyridin-2-yl}-1-(cyclopropylmethyl)-1H-indol-6-yl)-2-chloro-5-fluorophenyl]methanol]"
7,120,"Cc1c(-c2ccc3cc(-c4nn5cc(C(=O)N6C[C@H](N)C[C@@H](F)C6)ccc5c4C)n(CC4CC4)c3c2)cc(F)c2[nH]c(=O)ccc12 [Example 376, 6-(2-{6-[(3R,5R)-3-Amino-5-fluoropiperidine-1-carbonyl]-3-methylpyrazolo[1,5-a]pyridin-2-yl}-1-(cyclopropylmethyl)-1H-indol-6-yl)-8-fluoro-5-methyl-1,2-dihydroquinolin-2-one]"
8,90,"Cc1c(-c2cc3ccc(-c4ccc(C(N)=O)cc4Cl)cc3n2CC2CC2)nn2cc(C(=O)N3C[C@H](N)C[C@@H](F)C3)ccc12 [Example 377, 4-(2-{6-[(3R,5R)-3-Amino-5-fluoropiperidine-1-carbonyl]-3-methylpyrazolo[1,5-a]pyridin-2-yl}-1-(cyclopropylmethyl)-1H-indol-6-yl)-3-chlorobenzamide]"
9,450,"Cc1cc(-c2ccc3cc(-c4nn5cc(C(=O)N6C[C@H](N)C[C@@H](F)C6)ccc5c4C)n(CC4CC4)c3c2)ccc1C(N)=O [Example 378, 4-(2-{6-[(3R,5R)-3-Amino-5-fluoropiperidine-1-carbonyl]-3-methylpyrazolo[1,5-a]pyridin-2-yl}-1-(cyclopropylmethyl)-1H-indol-6-yl)-2-methylbenzamide]"
10,160,"Cc1c(-c2cc3ccc(-c4ccn5c(C)nnc5c4)cc3n2CC2CC2)nn2cc(C(=O)N3C[C@H](N)C[C@@H](F)C3)ccc12 [Example 379, (3R,5R)-1-{2-[1-(Cyclopropylmethyl)-6-{3-methyl-[1,2,4]triazolo[4,3-a]pyridin-7-yl}-1H-indol-2-yl]-3-methylpyrazolo[1,5-a]pyridine-6-carbonyl}-5-fluoropiperidin-3-amine]"
11,140,"Cc1c(-c2cc3ccc(C(C)(C)O)nc3n2CC2CC2)nn2cc(C(=O)N3CCC[C@@H](N)C3)ccc12 [Example 380, 2-(2-{6-[(3R)-3-Aminopiperidine-1-carbonyl]-3-methylpyrazolo[1,5-a]pyridin-2-yl}-1-(cyclopropylmethyl)-1H-pyrrolo[2,3-b]pyridin-6-yl)propan-2-ol]"
12,40,"Cc1c(-c2cc3ccc(C(C)(O)C(F)(F)F)nc3n2CC2CC2)nn2cc(C(=O)N3CC4CCC3[C@@H]4N)cc(F)c12 (stereo partly drawn) [Example 383, 2-(2-{6-[(7R)-7-Amino-2-azabicyclo[2.2.1]heptane-2-carbonyl]-4-fluoro-3-methylpyrazolo[1,5-a]pyridin-2-yl}-1-(cyclopropylmethyl)-1H-pyrrolo[2,3-b]pyridin-6-yl)-1,1,1-trifluoropropan-2-ol]"
13,200,"Cc1c(-c2cc3ccc(C(C)(O)C4CC4)nc3n2CC2CC2)nn2cc(C(=O)N3CC4CCC3[C@@H]4N)cc(F)c12 (stereo partly drawn) [Example 384, 1-(2-{6-[(7R)-7-Amino-2-azabicyclo[2.2.1]heptane-2-carbonyl]-4-fluoro-3-methylpyrazolo[1,5-a]pyridin-2-yl}-1-(cyclopropylmethyl)-1H-pyrrolo[2,3-b]pyridin-6-yl)-1-cyclopropylethan-1-ol]"
14,10,"COc1cc(C(=O)N2C[C@H](N)C[C@@H](F)C2)cn2nc(-c3cc4cccc(C5CCN(C(=O)[C@H]6CC[C@H](O)CC6)CC5)c4n3CC3CC3)c(C)c12 [Example 391, ((3R,5R)-3-Amino-5-fluoropiperidin-1-yl)(2-(1-(cyclopropylmethyl)-7-(1-((1r,4r)-4-hydroxycyclohexane-1-carbonyl)piperidin-4-yl)-1H-indol-2-yl)-4-methoxy-3-methylpyrazolo[1,5-a]pyridin-6-yl)methanone]"
15,140,"COc1cc(C(=O)N2C[C@H](N)C[C@@H](F)C2)cn2nc(-c3cc4cccc(C5CCN(C(=O)[C@@H](C)OC)CC5)c4n3CC3CC3)c(C)c12 [Example 395, (R)-1-(4-(2-(6-((3R,5R)-3-Amino-5-fluoropiperidine-1-carbonyl)-4-methoxy-3-methylpyrazolo[1,5-a]pyridin-2-yl)-1-(cyclopropylmethyl)-1H-indol-7-yl)piperidin-1-yl)-2-methoxypropan-1-one]"
16,20,"COCC(=O)N1CCC(c2cccc3cc(-c4nn5cc(C(=O)N6CCC[C@@H](N)C6)cc(OC)c5c4C)n(CC4CC4)c23)CC1 [Example 401, (R)-1-(4-(2-(6-(3-Aminopiperidine-1-carbonyl)-4-methoxy-3-methylpyrazolo[1,5-a]pyridin-2-yl)-1-(cyclopropylmethyl)-1H-indol-7-yl)piperidin-1-yl)-2-methoxyethan-1-one]"
17,60,"COc1cc(C(=O)N2CCC[C@@H](N)C2)cn2nc(-c3cc4cccc(C5CCN(C(=O)[C@@H](C)OC)CC5)c4n3CC3CC3)c(C)c12 [Example 402, (R)-1-(4-(2-(6-((R)-3-Aminopiperidine-1-carbonyl)-4-methoxy-3-methylpyrazolo[1,5-a]pyridin-2-yl)-1-(cyclopropylmethyl)-1H-indol-7-yl)piperidin-1-yl)-2-methoxypropan-1-one]"
18,460,"COc1cc(C(=O)N2CCC[C@@H](N)C2)cn2nc(-c3cc4cccc(C5CCN(C(=O)[C@H](C)OC)CC5)c4n3CC3CC3)c(C)c12 [Example 403, (S)-1-(4-(2-(6-((R)-3-Aminopiperidine-1-carbonyl)-4-methoxy-3-methylpyrazolo[1,5-a]pyridin-2-yl)-1-(cyclopropylmethyl)-1H-indol-7-yl)piperidin-1-yl)-2-methoxypropan-1-one]"
19,30,"COc1cc(C(=O)N2C[C@H](N)C[C@@H](F)C2)cn2nc(-c3cc4cccc(C5CCN(C(=O)[C@H](C)OC)CC5)c4n3CC3CC3)c(C)c12 [Example 404, (S)-1-(4-(2-(6-((3R,5R)-3-Amino-5-fluoropiperidine-1-carbonyl)-4-methoxy-3-methylpyrazolo[1,5-a]pyridin-2-yl)-1-(cyclopropylmethyl)-1H-indol-7-yl)piperidin-1-yl)-2-methoxypropan-1-one]"
20,20,"COCC(=O)N1CCC(c2cccc3cc(-c4nn5cc(C(=O)N6C[C@H](N)C[C@@H](F)C6)cc(OC)c5c4C)n(CC4CC4)c23)CC1 [Example 405, 1-(4-(2-(6-((3R,5R)-3-Amino-5-fluoropiperidine-1-carbonyl)-4-methoxy-3-methylpyrazolo[1,5-a]pyridin-2-yl)-1-(cyclopropylmethyl)-1H-indol-7-yl)piperidin-1-yl)-2-methoxyethan-1-one]"
21,90,"COc1cc(C(=O)N2CCC[C@@H](N)C2)cn2nc(-c3cc4cccc(C5CCN(C(=O)[C@H]6CC[C@@H](O)CC6)CC5)c4n3CC3CC3)c(C)c12 [Example 406, ((R)-3-Aminopiperidin-1-yl)(2-(1-(cyclopropylmethyl)-7-(1-((1s,4s)-4-hydroxycyclohexane-1-carbonyl)piperidin-4-yl)-1H-indol-2-yl)-4-methoxy-3-methylpyrazolo[1,5-a]pyridin-6-yl)methanone]"
22,30,"COc1cc(C(=O)N2C[C@H](N)C[C@@H](F)C2)cn2nc(-c3cc4cccc(C5CCN(C(=O)[C@H]6CC[C@@H](O)CC6)CC5)c4n3CC3CC3)c(C)c12 [Example 407, ((3R,5R)-3-Amino-5-fluoropiperidin-1-yl)(2-(1-(cyclopropylmethyl)-7-(1-((1s,4s)-4-hydroxycyclohexane-1-carbonyl)piperidin-4-yl)-1H-indol-2-yl)-4-methoxy-3-methylpyrazolo[1,5-a]pyridin-6-yl)methanone]"
